# Data reported in US6537974B2, “Method of treating arrhythmias” (CV Therapeutics, Inc., priority 2000, dated 2003).
# What was measured:
# [1] = tested on: patients with PSVT; assay: Treatment of patients with induced PSVT with CVT-510 boluses: conversion to sinus rhythm; format: in vivo, human; settings: for % conversion after Bolus 1 / % conversion after Bolus 2 / % cumulative conversion: patients with PSVT
# Procedure: (§1) The effect of CVT-510 on prolongation of AH interval, a measure of an adenosine A1 mediated effect of CVT-510, and on the heart rate (sinus rate) of patients with PSVT was tested in patients undergoing a clinically indicated electrophysiology study. In the first study patients volunteers were administered a single bolus of. CVT-510. In the second study PSVT was induced in patients prior to the administration of CVT-510.
# [2] = biological target: T1, A1 adenosine receptor (Homo sapiens, UniProt P30542); assay: Specificity for the A1 adenosine receptor: CPX antagonism, left ventricular pressure
# T1 sequence (P30542 1-326): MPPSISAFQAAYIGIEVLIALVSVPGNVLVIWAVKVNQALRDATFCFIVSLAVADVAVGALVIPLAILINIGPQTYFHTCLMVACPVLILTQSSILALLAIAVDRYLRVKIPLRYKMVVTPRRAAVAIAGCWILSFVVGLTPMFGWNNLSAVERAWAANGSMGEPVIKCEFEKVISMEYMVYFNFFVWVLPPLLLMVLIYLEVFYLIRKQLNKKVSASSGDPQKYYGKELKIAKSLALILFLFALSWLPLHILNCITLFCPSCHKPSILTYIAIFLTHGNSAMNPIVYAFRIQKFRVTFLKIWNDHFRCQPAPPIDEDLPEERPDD
# [3] = tested on: AV node (AH interval); assay: Electrophysiology study: single intravenous bolus of CVT-510, effect on AH interval, heart rate, blood pressure; format: in vivo, human
# Procedure: as §1
# All antiarrhythmic agents, including digoxin, beta-blockers and calcium-channel blockers were discontinued for five half-lives prior to the study.
# Patients were excluded from the study if the PR interval was >200 ms or resting heart rate was <60 or >100/min. Other exclusion criteria included evidence of ventricular preexcitation, Class II-IV congestive heart failure or asthma. Patients were also required to have normal baseline electrophysiologic parameters, including a paced AV nodal Wenckebach cycle length 500 ms, an AH interval between 60 and 125 ms and an HV interval 35-55 ms. All patients were 18 years of age.
# Quadripolar catheters were introduced percutaneously and advanced under fluoroscopic guidance to the high right atrium and across the tricuspid annulus to record the His bundle potential. […] Data were stored on optical disk. All patients had continuous ECG and non-invasive blood pressure monitoring throughout the study.
# Cardiac stimulation was performed with a programmable stimulator with an isolated constant-current source. Stimuli were delivered as rectangular pulses of 2 ms duration at four times diastolic threshold. The study design was open-label with dose escalation, with the latter determined by tolerability. A single intravenous bolus of CVT-510 was administered to each patient after baseline electrophysiologic measurements were made.
# After a bolus dose of CVT-510 was given, blood pressure, heart rate, 12-lead ECG and AH and HV intervals were recorded at 1, 5, 10, 15, 20 and 30 min and then every 15 min for up to 1 hour post-bolus or until the parameters returned to baseline. The AH and HV intervals were determined by measuring the last interval during a 15 beat drive at a paced cycle length of 600, 500 and 400 ms (unless precluded by pacing-induced AV nodal Wenckebach).
# Administration of CVT-510 started at a dose of 0.3 μg/kg. Dose escalation proceeded with additional groups of patients receiving doses of 1, 3, 7.5, 10, 15 and 30 μg/kg based on tolerability and the absence of AV nodal Wenckebach or 3° AV block during sinus rhythm.
# Data are expressed as mean ±SD. Based on the results of the normality test, a paired t-test or a non-parametric signed-rank test (SR) was used to determine the significance of CVT-510's effects on heart rate, blood pressure, ECG and AV nodal conduction times (AH and HV) for each dosing group (e.g., 0.3, 1.0, 3.0, 7.5, 10.0, 15.0 and 30.0 μg/kg). Similarly, analysis of variance (ANOVA) or the Kruskal-Wallis test (KW) was used to compare the AH intervals during sinus rhythm and atrial pacing at all doses. No adjustment for multiple comparisons were made, and a P value <0.05 were used to determine the significance of the differences between mean values.
# [4] = in vivo; cited from earlier work
structure (smiles),measurement,setting,value
"OC[C@H]1O[C@@H](n2cnc3c(N[C@@H]4CCOC4)ncnc32)[C@H](O)[C@@H]1O [CVT-510, 6-(3-(R)-aminotetrahydrofuranyl)purine riboside]",% conversion after Bolus 1,[1]; Dose Level 3 (n = 4),75%
same,% conversion after Bolus 2,[1]; Dose Level 3 (n = 4),25%
same,% cumulative conversion,[1]; Dose Level 3 (n = 4),100%
same,% conversion after Bolus 1,[1]; Dose Level 5 (n = 9),78%
same,% conversion after Bolus 2,[1]; Dose Level 5 (n = 9),0%
same,% cumulative conversion,[1]; Dose Level 5 (n = 9),78%
same,% conversion after Bolus 1,[1]; Dose Level 7.5 (n = 4),100%
same,% conversion after Bolus 2,[1]; Dose Level 7.5 (n = 4),0%
same,% cumulative conversion,[1]; Dose Level 7.5 (n = 4),100%
same,% conversion after Bolus 1,[1]; Dose Level 10 (n = 5),90%
same,% conversion after Bolus 2,[1]; Dose Level 10 (n = 5),0%
same,% cumulative conversion,[1]; Dose Level 10 (n = 5),90%
same,% conversion after Bolus 1,[1]; Dose Level 12.5 (n = 4),75%
same,% conversion after Bolus 2,[1]; Dose Level 12.5 (n = 4),25%
same,% cumulative conversion,[1]; Dose Level 12.5 (n = 4),100%
same,% conversion after Bolus 1,[1]; Dose Level 15 (n = 10),80%
same,% conversion after Bolus 2,[1]; Dose Level 15 (n = 10),10%
same,% cumulative conversion,[1]; Dose Level 15 (n = 10),90%
same,HV prolongation,[1]; at low concentrations,without causing
same,depressing sinus or AV nodal conduction after restoring SR,[1]; at low concentrations,without causing
same,hypotension,[1]; at low concentrations,without causing
same,termination of PSVT,[1]; at low concentrations,rapidly terminates PSVT
same,effect on dpdt^−1 max,[2],no effect
same,effect on left ventricular pressure,[2],no effect
same,effects on the AV node in the presence of the selective A1 receptor antagonist CPX,"[2]; with CPX, effects on coronary conductance not abolished",completely abolished
same,effect on AV nodal conduction,"[3]; bolus doses 0.3-30 μg/kg, patients",slows AV nodal conduction in a dose-dependent manner
same,time of maximal effect on the AH interval after dosing,"[3]; dose of 7.5 μg/kg, human patients",one
same,half-life compared with adenosine,[3]; in vivo,relatively long
same,effect on sinus rate,[3]; patients,no effect
same,effect on systemic blood pressure,[3]; patients,no effect
same,onset of action,[3]; post-administration,≤ 1 min
same,time by which effects were mostly eliminated,[3]; post-administration,≤ 20 min
C[C@H]1O[C@@H](O[C@H]2[C@@H](O)C[C@H](O[C@H]3[C@@H](O)C[C@H](O[C@H]4CC[C@@]5(C)[C@H](CC[C@@H]6[C@@H]5C[C@@H](O)[C@]5(C)[C@@H](C7=CC(=O)OC7)CC[C@]65O)C4)O[C@@H]3C)O[C@@H]2C)C[C@H](O)[C@@H]1O [Digoxin],delayed onset of action,[4],about 30 min
same,time to peak effects after administration,[4],3 to 4 h
